Measured values from ChEMBL document CHEMBL1201862, “PubChem BioAssay data set” (2004).
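In this assay, cells in 96-well plates receive the compound at five concentrations for 48 hours. Endpoints are linearly interpolated between the surrounding concentrations. The concentration for 50% growth inhibition is given as GI50.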 Active and inactive are the calls of the source. Rule as the data show it: active = GI50 up to about 1.1 µM and inactive = higher. Residues, ends and D or L forms follow the SMILES beside them.

What was measured:
Test in all cases: inhibition of tumour cell growth, NCI panel, 48 h
BT-549 = tested on: BT-549
DMS-273 = tested on: DMS-273
LXFL 529 = tested on: LXFL 529
KM-20L2 = tested on: KM-20L2
DLD-1 = tested on: DLD-1
DMS-114 = tested on: DMS-114
HOP-18 = tested on: HOP-18
XF498 = tested on: XF498

## O=C(Cn1c(C(=O)/C=C/c2ccco2)nc2ccccc21)c1ccc(Cl)cc1
BT-549
  GI50: 14.9 µM (inactive)

## CS[C@]12[C@@H]3C(=O)N(C)C(=O)[C@@H]3[C@](C)(C(=O)N1C)C(=O)N2c1ccccc1
BT-549
  GI50: > 100 µM (inactive)

## O=C1c2ccccc2C(=O)c2cc3c(cc21)C[S+]([O-])C3
DMS-273
  GI50: > 100 µM (inactive)
LXFL 529
  GI50: > 100 µM (inactive)
KM-20L2
  GI50: > 100 µM (inactive)
DLD-1
  GI50: > 100 µM (inactive)
DMS-114
  GI50: > 100 µM (inactive)
HOP-18
  GI50: > 100 µM (inactive)

## N#CCC(=O)NC1C2CC3CC(C2)CC1C3 (centres undefined)
DMS-273
  GI50: 21.6 µM (inactive)
LXFL 529
  GI50: 28.1 µM (inactive)
KM-20L2
  GI50: 18.2 µM (inactive)
DLD-1
  GI50: 20.2 µM (inactive)
DMS-114
  GI50: 16 µM (inactive)

## CN1C(=O)CC(c2cccc(C3CC(=O)N(C)C3=O)n2)C1=O (centres undefined)
DMS-273
  GI50: > 100 µM (inactive)
LXFL 529
  GI50: > 100 µM (inactive)
KM-20L2
  GI50: > 100 µM (inactive)
DLD-1
  GI50: > 100 µM (inactive)
DMS-114
  GI50: > 100 µM (inactive)
HOP-18
  GI50: > 100 µM (inactive)

## CCOC1OC(COC(=O)C(C)(C)C)C(O)CC1n1cc(C)c(=O)[nH]c1=O (centres undefined)
BT-549
  GI50: > 100 µM (inactive)

## CN(C)CCCNc1nnc(NCCCN(C)C)c2c(=O)c3sccc3[nH]c12
BT-549
  GI50: 32.1 µM (inactive)

## O=C1C2=C(C(=O)c3c(O)ccc(O)c31)[C@@H](O)[C@@H](O)[C@@H](O)C2
BT-549
  GI50: 1.43 µM (inactive)

## [O-][Cl+3]([O-])([O-])[O-].c1ccc(-c2csc3c4ccccc4c4ccccc4[n+]23)cc1
DMS-273
  GI50: 1.6 µM (inactive)
LXFL 529
  GI50: 1.84 µM (inactive)
KM-20L2
  GI50: 5.53 µM (inactive)
DLD-1
  GI50: 5.58 µM (inactive)
DMS-114
  GI50: 0.394 µM (active)
HOP-18
  GI50: 14.3 µM (inactive)
XF498
  GI50: 1.79 µM (inactive)

## CCCCc1ccc(Nc2nc(Cl)c3c(ncn3COCCOC(C)=O)n2)cc1
BT-549
  GI50: 15 µM (inactive)

## CCC(C)C(NC(=O)C1CCCN1)C(=O)NC(C(=O)NCC(=O)NC(CC(N)=O)C(=O)NC(CC(C)C)C(=O)NC(CC(C)C)C(=O)NC(CCCCN)C(N)=O)C(C)C (centres undefined) (H-PIVGNLLK-NH2; configuration not given here)
BT-549
  GI50: > 75 µM (inactive)

## Nc1c(-c2ccc(-c3c(N)[n+]([O-])c4ccccc4[n+]3[O-])cc2)[n+]([O-])c2ccccc2[n+]1[O-]
DMS-273
  GI50: 14.2 µM (inactive)
LXFL 529
  GI50: 7.87 µM (inactive)
KM-20L2
  GI50: > 10 µM (inactive)
DLD-1
  GI50: 11.8 µM (inactive)
DMS-114
  GI50: 3.4 µM (inactive)
HOP-18
  GI50: 7.67 µM (inactive)
XF498
  GI50: 11.5 µM (inactive)

## CC(=O)N1c2ccccc2C23CCN4CC5=CCOC(O)C(C5CC42)C13 (centres undefined)
BT-549
  GI50: > 100 µM (inactive)

## C=C(C)[C@@H]1CC[C@]2(C(=O)O)CC[C@]3(C)[C@H](CCC4[C@@]5(C)CC[C@H](C(=O)/C=C/c6ccc(O)c(O)c6)C(C)(C)[C@@H]5CC[C@]43C)[C@@H]12 (some centres undefined)
BT-549
  GI50: 12 µM (inactive)

## C(=N\OCCc1ccccc1)/c1cccnc1
BT-549
  GI50: > 100 µM (inactive)

## N#C[C@H](C(=O)c1ccccc1F)c1nc2ccccc2[nH]1
BT-549
  GI50: > 100 µM (inactive)

## COc1ccc2nc3cc([N+](=O)[O-])ccc3c(Nc3ccc(S(=O)(=O)N=C(N)N)cc3)c2c1
BT-549
  GI50: 33.2 µM (inactive)

## Cc1noc(NS(=O)(=O)c2ccc(NC(=O)c3ccc4nc5ccccc5c(Nc5ccc(S(=O)(=O)Nc6onc(C)c6C)cc5)c4c3)cc2)c1C
BT-549
  GI50: 24.8 µM (inactive)

## O=c1oc2cc(O)ccc2c(O)c1C(c1ccccc1F)c1c(O)c2ccc(O)cc2oc1=O
BT-549
  GI50: 11.3 µM (inactive)

## O=C(Cn1c(-c2ccccc2)cc2ccccc21)N1CCCC1
BT-549
  GI50: > 100 µM (inactive)

## COC(=O)c1c(C)cc(OC)c(C/C=C(\C)CCCc2coc(C=C(C)C)c2)c1OC
BT-549
  GI50: > 100 µM (inactive)

## O=C(NC12CC3CC(CC(C3)C1)C2)C(=O)c1c[nH]c2ccc(Cl)cc12
DMS-273
  GI50: 16.8 µM (inactive)
LXFL 529
  GI50: 21.8 µM (inactive)
KM-20L2
  GI50: 5.73 µM (inactive)
DMS-114
  GI50: 66.8 µM (inactive)
XF498
  GI50: 14.7 µM (inactive)

## Cc1cc2c(cc1C)C(=O)c1ncccc1C2=O
BT-549
  GI50: 40.9 µM (inactive)

## FC(F)(F)c1ccc2nc(Nc3ccc(Cl)c(Cl)c3)c(-c3ccccc3)nc2c1
DMS-273
  GI50: 6.55 µM (inactive)
LXFL 529
  GI50: 8.3 µM (inactive)
KM-20L2
  GI50: 55.7 µM (inactive)
HOP-18
  GI50: > 100 µM (inactive)
XF498
  GI50: 31.2 µM (inactive)

## Cc1nc2ccc(S(=O)(=O)Nc3ccccc3Cl)cc2c(=O)n1NC(=O)CNc1ccccc1Cl
BT-549
  GI50: > 100 µM (inactive)

## CC(CC(C)[C@H]1CCC2[C@H]3C(CC(=O)[C@@]21C)[C@@]1(C)CCC(O)C[C@H]1C[C@@H]3O)C(=O)O (some centres undefined)
BT-549
  GI50: > 100 µM (inactive)

## CCN(CC)CCCNc1nccc2c(C)c3c(cc12)c1cnccc1n3C
DMS-273
  GI50: 0.0353 µM (active)
KM-20L2
  GI50: 0.0682 µM (active)
DLD-1
  GI50: 0.0244 µM (active)
DMS-114
  GI50: 0.0501 µM (active)
HOP-18
  GI50: < 0.01 µM (active)
XF498
  GI50: 0.16 µM (active)

## COc1cc(C=O)cc(/C=N/N=C/c2ccccc2O)c1O
BT-549
  GI50: 10.2 µM (inactive)

## Cc1nc(O)nc2nc3cc(Cl)cc(Cl)c3c(NC(C)(CO)CO)c12
BT-549
  GI50: 35.6 µM (inactive)

## CCOC(=O)C#Cc1ccccc1
BT-549
  GI50: 11.6 µM (inactive)

## CCc1ccccc1N1CCN(C(=O)c2cc(OC)c(OC)c(OC)c2)CC1
DMS-273
  GI50: 0.0277 µM (active)
BT-549
  GI50: 0.0361 µM (active)
KM-20L2
  GI50: 0.0813 µM (active)
DLD-1
  GI50: 0.2 µM (active)
DMS-114
  GI50: 0.0561 µM (active)
XF498
  GI50: 0.115 µM (active)

## Cc1nc2c(=O)n3c4c(cccc4c2o1)CCC3
BT-549
  GI50: > 100 µM (inactive)

## O=C1/C(=C/c2ccc(Br)s2)NC(=S)N1c1ccccc1
BT-549
  GI50: 82.6 µM (inactive)

## Nc1c2c(nc3ccccc13)-c1ccccc1CCC2
BT-549
  GI50: 17.6 µM (inactive)

## O=c1n(-c2ccccc2)c(=O)n2n1C1Cc3ccccc3C12 (centres undefined)
BT-549
  GI50: > 100 µM (inactive)
